Laboratory results from BindingDB's records for doi:10.1016/j.bmcl.2004.05.021 (University of Alberta, 2004).

What follows are compounds tested against Genome polyprotein 3C proteinase (Hepatitis A virus) (assay: Reversible inhibitory activity against Protease).

IC50 | Structure (SMILES)
2000 nM | CC(=O)N[C@@H](CC(C)C)C(=O)N[C@@H](C)C(=O)N[C@@H](C)C(=O)N[C@@H](C[C@@H]1CCNC1=O)C(=O)Cn1[nH]c(=O)c2c(F)c(F)c(F)c(F)c2c1=O [(S)-2-Acetylamino-4-methyl-pentanoic acid ((S)-1-{1-[(S)-2-oxo-1-((1S,4S)-2-oxo-pyrrolidin-3-ylmethyl)-3-(5,6,7,8-tetrafluoro-1,4-dioxo-3,4-dihydro-1H-phthalazin-2-yl)-propylcarbamoyl]-ethylcarbamoyl}-ethyl)-amide]
1600 nM | CC(=O)N[C@@H](CC(C)C)C(=O)N[C@@H](C)C(=O)N[C@@H](C)C(=O)N[C@@H](C[C@@H]1CCNC1=O)C(=O)Cn1[nH]c(=O)c2c([N+](=O)[O-])cccc2c1=O [(S)-2-Acetylamino-4-methyl-pentanoic acid ((S)-1-{1-[(S)-3-(5-nitro-1,4-dioxo-3,4-dihydro-1H-phthalazin-2-yl)-2-oxo-1-((1S,4S)-2-oxo-pyrrolidin-3-ylmethyl)-propylcarbamoyl]-ethylcarbamoyl}-ethyl)-amide]
13000 nM | CC(=O)N[C@@H](CC(C)C)C(=O)N[C@@H](C)C(=O)N[C@@H](C)C(=O)N[C@@H](CCC(=O)N(C)C)C(=O)Cn1[nH]c(=O)c2ccccc2c1=O [(S)-4-{(S)-2-[(S)-2-((S)-2-Acetylamino-4-methyl-pentanoylamino)-propionylamino]-propionylamino}-6-(1,4-dioxo-3,4-dihydro-1H-phthalazin-2-yl)-5-oxo-hexanoic acid dimethylamide]
